# Patent US4933349A, “Treating agent for heart failure” (Daiichi Seiyaku Co., Ltd., priority 1987, dated 1990)
# “Also recorded” adds a separate entry of the source. Where a name gives a salt, the structure may show the parent alone.
# What was measured:
# [1] = tested on: Monocrotaline-Induced Heart Failure Model (Heart Failure induced by Pulmonary Hypertension); test: Efficacy in Monocrotaline-induced heart failure model (heart failure induced by pulmonary hypertension); assay type: in vivo, SD-SLC male rats
# Method: Efficacy in Monocrotaline-Induced Heart Failure Model (A Model of Heart Failure induced by Pulmonary Hypertension)
# SD-SLC male rats (body weight: 160 to 190 g) were used. Monocrotaline was dissolved in 1N hydrochloric acid, and the solution was adjusted to a pH of 7.4 with a 1N sodium hydroxide aqueous solution. Distilled water was added thereto to make a 40 mg/ml solution. The solution was subcutaneously administered to the rats at a dose of 40 mg/kg to prepare right ventricular insufficient rats.
# Another group of rats was subcutaneously administered with 1 ml/kg of physiological saline only and served as intact control.
# Compound A was dissolved in distilled water. Six hours from the administration of Monocrotaline, the solution was orally administered to the test animals at a single daily dose of 10 mg/kg for consecutive 1 month (6 days per week). As a control group, the right ventricular insufficient rats orally received 5 ml/kg of distilled water only.
# On the next day of the final administration of Compound A, a catheter was inserted into the right ventricle under anesthesia with pentobarbital (50 mg/kg, i.p.), and the right ventricular systolic pressure was measured. Thereafter, the heart was excised, divided into the left ventricle (including the septum) and the right ventricle, and the wet weight of each ventricle was determined. The results obtained are given in Table 3, as expressed as mean±S.E.
# [2] = tested on: Heart Failure induced by Myocardial Infarction; test: Efficacy in heart failure induced by myocardial infarction (left coronary artery ligation), hemodynamic measurements and ventricle weight; assay type: in vivo, SD-SLC male rats
# Method: Efficacy in Heart Failure induced by Myocardial Infarction SD-SLC male rats (body weight: 272 to 315 g) (purchased from Shizuoka Jikken Dobutsu Kyodo Kumiai) were used as test animals. Intercostal thoracotomy was made on the left chest of the rat anesthesized with pentobarbital (50 mg/kg, i.p.). The left coronary artery was then ligated at the position 2 to 3 mm away from its origin according to the method of Selye et al, Angiology, Vol. 11, 398 (1960). Immediately after confirming that the peripheral cardiac muscle of the open chest rat was involved in ischemia, the opening was closed, and the animal was fed on food and tap water ad lib. As a sham operation group, another group of rats received thoracotomy in the same manner as described above except for carrying out no ligation of the coronary artery. […] A control group orally received 5 ml/kg/day of ion-exchanged water only. On the next day of the final administration of Compound A, a catheter was inserted into the femoral artery and the left ventricle of the rat under anesthesia with Inactin (100 mg/kg, i.p.), and systemic mean blood pressure, maximum rate of increase of the intraventricular pressure (LV dp/dt max), contractile index (LV dp/dt max/p), left ventricular systolic pressure, left ventricular diastolic pressure and heart rate were measured. After completion of these measurements, the heart was excised and divided into the left ventricle (including the septum) and the right ventricle. The wet weight of each ventricle was measured.
# [3] = tested on: rats; test: Acute toxicity in rats (LD50), oral or intravenous; assay type: in vivo
# Text: Acute toxicities of Compound A in rats through oral administration or intravenous injection were as follows.
# [4] = 10 mg/kg p.o. daily, 6 times per week, 1 month, mean±S.E., n = 7
# [5] = 10 mg/kg p.o. daily, 6 times per week, 1 month, mean±S.E., n = 7, ** P < 0.01 vs sham, # P < 0.05 vs control group
# [6] = coronary artery ligation, 1 month
# [7] = wet weight after 10 mg/kg p.o. daily, 1 month, mean±S.E., n = 7, * P < 0.05 vs control group
compound,measurement,setting,value
"O=C(O)c1ccc2c(c1)CCC(Cn1ccnc1)C2 (stereo not shown) [Compound A, 6-(1-Imidazolylmethyl)-5,6,7,8-tetrahydronaphthalene-2-carboxylic acid hydrochloride hemihydrate]",Right Ventricular Systolic Pressure,"[1]; 10 mg/kg p.o. daily, 6 days per week, 1 month, mean±S.E., N = 7, * P < 0.05 vs intact control, # P < 0.05 vs control group",46.9 ± 4.9 mmHg
same,Right Ventricle Weight/Left Ventricle Weight,"[1]; 10 mg/kg p.o. daily, 6 days per week, 1 month, mean±S.E., N = 7, ** P < 0.01 vs intact control group",0.41 ± 0.04
same,Right ventricular hypertrophy / cardiac hypertrophy (result in words),"[1]; Monocrotaline, 1 month",showed a tendency to inhibit the right ventricular hypertrophy
same,Right ventricular systolic pressure (result in words),"[1]; Monocrotaline, 1 month",significantly inhibited the increase in the right ventricular systolic pressure
same,Improvement of heart failure induced by pulmonary hypertension (result in words),[1]; long-term administration,exhibited improvements of heart failure induced by pulmonary hypertension
same,Heart Rate,[2]; [4],399 ± 14 min⁻¹
same,Mean Blood Pressure,[2]; [4],132 ± 5 mmHg
same,Left Ventricular Systolic Pressure,"[2]; 10 mg/kg p.o. daily, 6 times per week, 1 month, mean±S.E., n = 7, * P < 0.05 vs sham operation group",143 ± 6 mmHg
same,Contractile Index (LV dp/dt max/p),[2]; [5],79 ± 5 s⁻¹
same,Left Ventricular Diastolic Pressure,[2]; [5],12.0 ± 3.2 cmH2 O
same,Contractile index (result in words),[2]; [6],inhibition on reduction of contractile index
same,Left ventricular diastolic pressure (result in words),[2]; [6],inhibition on reduction of contractile index and on elevation of left ventricular diastolic pressure was observed
same,Ventricle weight / cardiac hypertrophy (result in words),"[2]; coronary artery ligation, 1 month, hydrochloride hemihydrate",increase of the ventricle weight can be suppressed significantly; also recorded: inhibit cardiac hypertrophy
same,Blood pressure (result in words),[2]; long-term administration,without adversely affecting the blood pressure
same,Cardiac contractility and pressure load to the heart (result in words),[2]; long-term administration,improved reduction of cardiac contractility and relieved pressure load to the heart
same,"Weight of Ventricle, Right","[2]; wet weight after 10 mg/kg p.o. daily, 1 month, mean±S.E., n = 7",0.361 ± 0.028 g
same,"Weight of Ventricle, Left",[2]; [7],0.861 ± 0.029 g
same,"Weight of Ventricle, Total",[2]; [7],1.222 ± 0.052 g
same,LD50,"[3]; female rats, i.v.",783 mg
same,LD50,"[3]; female rats, p.o.",1994 mg
same,LD50,"[3]; male rats, i.v.",807 mg
same,LD50,"[3]; male rats, p.o.",2438 mg
